For data set [1] the following is noted: literature; cited from earlier work.
Data set [2] is described as follows: NINCDS Maximal Electroshock Seizure Test (MES). It is filed as in vivo, mice. Particulars: for minimal effective dose: read-out: MES: dosage level that elicited protection. The protocol:
(§1) 1. Neurological Activity Tests. […] Compounds were evaluated for anticonvulsant activity in two seizure models, the maximal electroshock seizure (MES) test and the subcutaneous pentylenetetrazol (Metrazol) seizure threshold (scMet) test.
The Maximal Electroshock Seizure Test was performed according to the method described by Swinyard and coworkers,* wherein a drop of 0.9% saline is instilled in each eye prior to application of corneal electrodes. Seizures are elicited with a 50 Hz alternating current of 50 mA (5 to 7 times that necessary to elicit minimal electroshock seizures) delivered for 0.2 sec via corneal electrodes. This stimulus will produce a maximal seizure in all normal mice. The maximal seizure typically consists of a short period of initial tonic flexion and a prolonged period of hind limb tonic extension, followed by terminal clonus. The seizure lasts about 22 seconds. Abolition of the hind limb tonic extensor component of the seizure is defined as protection and indicates anticonvulsant activity in the test compound.
(§2) The ability of a compound to prevent maximal electroshock seizures is believed to correlate with its ability to prevent the spread of seizure discharge through neural tissue. Activity against maximal electroshock seizures is thought to indicate potential efficacy in the treatment of major motor (grand mal) seizures. […] Selective action in the test is believed to indicate potential efficacy against absence (petit mal) seizures.
(§3) As described earlier, the MES, scMet and Rotorod tests were performed one-half hour and four hours after administration of each compound.
(§4) In the Secondary Evaluation, median effective doses (ED50) are determined in the MES, scMet and Rotorod assays using the procedures defined in Pharmacology, 95, 99-113 (1949).
(§5) Separate groups of animals are used for each time period. The times of peak toxic and anticonvulsant effect are taken from the resulting graph of percent of animals responding vs. time, and the determinations of median effective doses are performed at those times.
(In general: In the maximal electroshock model the usual endpoint is tonic extension of the hind limbs.)

Data set [3] in a line: NINCDS Subcutaneous Pentylenetetrazol (Metrazol) Seizure Threshold Test (scMet). It is filed as in vivo, mice. The following applies: for minimal effective dose: sc, read-out: scMet: dosage level that elicited protection. The protocol: as §1
Subcutaneous Pentylenetetrazol (Metrazol) Seizure Threshold Test (scMet) produces threshold (clonic) seizures. Pentylenetetrazol is administered subcutaneously as a threshold 0.5% solution (in 0.9% sodium chloride) in a loose fold of skin on the back of the neck in a dose of 85 mg/kg. […] Metrazol is given 10 minutes before the beginning of the test to allow for the delay in onset of Metrazol action. The animal is observed for 30 minutes. Failure to observe even a threshold seizure (a single episode of clonic spasms at least 5 seconds in duration) is defined as protection and indicates anticonvulsant activity in the test compound. These two methods of seizure provocation reliably elicit well-characterizied seizure phenomena.
as §2, §3, §4, §5

Data set [4] is described as follows: NINCDS rotorod ataxia test (minimal neurotoxicity). It counts as in vivo, mice. As to the method: (§6) 1. Neurological Activity Tests. The biological testing program is designed to evaluate the following four aspects of drug action: (1) the existence and specificity of anticonvulsant activity; (2) the toxicity, particularly to the central nervous system; and, if the results of (1) and (2) are favorable, (3) the potency and protective index, a comparison between toxic and effective dose and (4) the time course of activity. Compounds were evaluated for anticonvulsant activity in two seizure models, the maximal electroshock seizure (MES) test and the subcutaneous pentylenetetrazol (Metrazol) seizure threshold (scMet) test.
Central nervous system toxicity was evaluated in the rotorod ataxia test. This test is designed to detect minimal neurotoxicity. The animal is placed on a 1-inch diameter knurled plastic rod rotating at 6 rpm. Normal mice can remain indefinitely on a rod rotating at this speed. Neurological deficit is defined as the failure of the animal to remain on the rod for at least 1 minute. This test has a clear end-point, is quantifiable and correlates well with the clinical assessment of minimal toxicity.
(§7) Specific anticonvulsant evaluations performed by NINCDS using MES, scMet and Rotorod assays are presented in Tables III & IV for fourteen new compounds as well as several known compounds. Table III centers attention on 2-substituted-3-o-tolyl-4-(3H)-quinazolinones while Table IV includes the findings for various other 2,3-disubstituted-4(3H)-quinazolinones. As described earlier, the MES, scMet and Rotorod tests were performed one-half hour and four hours after administration of each compound. The tables identify the dosage level that elicited a positive result, such as protection against MES and scMet induced seizures, or loss of balance on the rotorod.
In the Secondary Evaluation, median effective doses (ED50) are determined in the MES, scMet and Rotorod assays using the procedures defined in Pharmacology, 95, 99-113 (1949). In addition, each compound's anticonvulsant activity and neurotoxicity over time are determined by measuring the effect of an intraperitoneally administered estimated median effective dose on maximal electroshock seizures and rotorod performance at intervals of 1/2, 1, 2, 3, 4, 6 and 8 hours.
as §5
(The rotarod test checks motor coordination on a turning rod.)

Data set [5] is described as follows: NINCDS primary evaluation, overall classification. The following applies: primary evaluation. It is filed as in vivo, mice. The protocol:
as §6, §7

For data set [6] the following is noted: literature; cited from earlier work. This is another data set of the same source.
Data set [7] can be described thus: Neuropharmacological Profile (NPP): general CNS observational screen (depression, righting reflex, ataxia). Particulars: at 30 mg/kg (value in parentheses), i.p., mice, score 0-8. The protocol:
Representative compounds according to the present invention were tested for central nervous system activity by Pharmakon Laboratories of Scranton, Pennsylvania. The battery of general observational procedures used is referred to herein as a Neuropharmacological Profile (NPP). Additionally, representative compounds were tested in the Anticonvulsant Screening Project of the National Institutes of Neurological and Communicative Disorders and Stroke (NINCDS) at the University of Utah under the direction of Dr. Ewart A. Swinyard.
(§8) The procedures for the determination of a neuropharmacological profile involved white male mice of the Carworth Farm Strain CF-1 weighing 18 to 22 grams. […] Intraperitoneal injections were administered in logarithmic progression and sequentially. The dose levels employed routinely were 10, 30, 100 and 300 mg/kg, using four male mice at each dose level. Since this test was conducted in a sequential manner, the first does administered was at 300 mg/kg. […] Approximately thirty-eight signs and symptoms of pharmacological activity can be identified.
(§9) The animals were observed continously for one hour and, if no signs of pharmacological or toxicological activity were present at the end of the first hour, they were intermittently checked for activity every fifteen minutes thereafter for two consecutive hours. […] The observation period began immediately following the injection and the animals were then continuously observed for three hours and intermittently checked thereafter for forty-eight hours. The animals were observed and signs and symptoms of pharmacological activity were recorded continuously until no further symptoms developed and until the symptoms that appeared were no longer present. […] In such instances, the animals were observed beyond this period until they returned to normal. Routinely, the number of animals alive at the end of the forty-eight hour observation period was recorded and the LD50 estimated.
The animals are free to move about for evaluation of spatial orientation, alertness and spontaneous motor activity.
(§10) Since this is a general CNS screening procedure, only peak effects were recorded. Certain measures of behavior and neurological deficit were scored in terms of intensity of effect, while most others were determined on an all or none basis. Thus, in scoring measures which were normally present, e.g., spontaneous activity and skin color, an increase in score from 4 to 8 was used to denote stimulation or enhancement of skin color, whereas a decrease in score from 4 to 0 indicated depression or cyanosis. For scoring measures normally absent, e.g., depression, righting reflex and ataxia, activity was reflected as an increase in score from 0 to 8. The 0 to 8 scale was rounded off so that the actual ratings are only 0, 2, 4, 6 and 8. The compounds were also evaluated for anticonvulsant activity by using the maximal electroshock seizure (MES) test. In the MES study, four mice were dosed intraperitoneally at 100 mg/kg and challenged thirty minutes later with 50 mA, 0.2 second duration of electroshock. A protection ratio (number of mice protected from tonic extension .div. number of mice tested) was then established.
At the termination of the test, the results were recorded and tabulated.
(§11) Scores for behavioral symptoms, including depression, righting reflex and ataxia, are the actual numbers reported. Protection against MES is reported as a percentage. Since four animals were involved in this test, the findings are 0% for none protected, 25% for one out of four, etc. […] In order to maintain reasonable uniformity in the reporting of results, each entry corresponds to a dosage level of 100 mg/kg. Any variations from that dosage are indicated.

Data set [8] in a line: NPP maximal electroshock seizure (MES) protection. It counts as in vivo, white male mice of the Carworth Farm Strain CF-1. Particulars: Mus musculus, ip; conducted at 30 mg/kg i.p. As to the method:
as §8, §10, §11

Data set [9] can be described thus: NPP lethality (estimated LD50). Particulars: mouse, in vivo, ip. As to the method:
as §8, §9, §11

The conditions of data set [10]: literature, mice; cited from earlier work.
For data set [11] the following is noted: literature; cited from earlier work. The source holds these as a separate data set.
[12] abbreviates: Mus musculus, ip, after 4 hr (value in parentheses).
[13] abbreviates: Mus musculus, after 4 hr (value in parentheses).
Setting [14] is: after 4 hr (value in parentheses).
[15] abbreviates: Mus musculus, ip, secondary evaluation, at time of peak effect.

As for `Cc1ccccc1-n1c(C)nc2c(c1=O)CCCC2`, the “sedative-hypnotic / hypnotic / depressant activity (in words)” value in [1] is on record as “lack of hypnotic activity”.
Consider `Cc1ccccc1N1C(=O)c2ccccc2NC1C` (stereo not shown) [1,2-dihydro derivative], for which the “sedative-hypnotic / hypnotic / depressant activity (in words)” value in data set [1] is recorded as “abolishes depressant activity”.
Take `CCN(CC)c1ccc(-n2c(C)nc3ccccc3c2=O)cc1` [2-methyl-3-(p-diethylaminophenyl)-4(3H)-quinazolinone]: in data set [1], the “sedative-hypnotic / hypnotic / depressant activity (in words)” value is on record as “equal hypnotic activity to methaqualone”.
For `Cc1ccccc1-n1c(C)nc2cc(N)ccc2c1=O` [H and 7-amino, reference compound], the minimal effective dose in data set [2] (Mus musculus, ip, after 0.5 hr) is 100 mg/kg; in [2] (setting [12]) it was 100 mg/kg; in [3] (Mus musculus, after 0.5 hr), 100 mg/kg; in [3] (setting [13]) it was 100 mg/kg. Besides, the “Rotorod: dosage level that elicited loss of balance” value in [4] (after 0.5 hr) was found to be 100 mg/kg; in [4] (setting [14]) it was 300 mg/kg. Besides, in data set [5], the “toxicity remark (footnote a to NINCDS classification)” value is reported as “Extremely toxic”.
For `Cc1nc2ccccc2c(=O)n1-c1ccccc1Cl` [mecloqualone, 2-methyl-3-o-chlorophenyl-4(3H)-quinazolinone, reference compound], the minimal effective dose in data set [2] (setting [12]) was 300 mg/kg; in data set [3] (Mus musculus, after 0.5 hr), 30 mg/kg; in [3] (setting [13]) it was 100 mg/kg. In addition, in data set [3] (primary evaluation), the “effectiveness in protection against scMet induced seizures, comparison methaqualone/mecloqualone” value is “more effective in protection against scMet induced seizures”. For the same molecule, the “Rotorod: dosage level that elicited loss of balance” value amounted to 30 mg/kg in data set [4] (after 0.5 hr) and 100 mg/kg in [4] (setting [14]). In addition, the “toxicity remark (footnote a to NINCDS classification)” value in data set [5] is on record as “Extremely toxic”. Further, the “anticonvulsant activity (in words)” value in data set [6] is “better anticonvulsant agent than methaqualone”.
In the case of `Cc1ccccc1-n1c(C)nc2ccccc2c1=O` [methaqualone, 2-methyl-3-o-tolyl-4(3H)-quinazolinone, reference compound], the “CNS Depression” value in data set [7] turned out to be 8. Also, in [8], the responders at 30 mg/kg is 0%. For the same molecule, the LD50 (in general, the dose expected to kill half of the subjects tested) at 48 h in data set [9] was greater than 562 mg/kg. Also, the minimal effective dose is 100 mg/kg in [2] (Mus musculus, ip, after 0.5 hr); 300 mg/kg in data set [2] (setting [12]); 100 mg/kg in data set [3] (Mus musculus, after 0.5 hr); 300 mg/kg in data set [3] (setting [13]). Besides, the figures for the ED50 in [2] (setting [15]) and in [3] (setting [15]) were 52 mg/kg and 33.5 mg/kg, respectively. Moreover, the “activity in the MES test, comparison methaqualone/mecloqualone” value in [2] (primary evaluation) is listed as “more active in the MES test”. The results for the “Rotorod: dosage level that elicited loss of balance” value in [4] (after 0.5 hr) and in [4] (setting [14]) were 100 mg/kg and 300 mg/kg, respectively. Moreover, the TD50 (commonly the 50% point of the dose-response relation for the toxic effect studied) in [4] (mouse, in vivo, ip, secondary evaluation, at time of peak effect) amounted to 55 mg/kg. Moreover, the “sedative-hypnotic / hypnotic / depressant activity (in words)” value in data set [1] is recorded as “comparable to short-acting barbiturates in terms of sedative-hypnotic activity”. In data set [10], the “prevention of pentylenetetrazol induced convulsive seizures (in words)” value is listed as “superior to sodium phenobarbitone”.
In the case of `CCC1(c2ccccc2)C(=O)NC(=O)NC1=O` [phenobartital], the “protection against maximal electro-shock seizures (in words)” value in data set [11] was “better protector against maximal electro-shock seizures (MES) then methaqualone”.

Values taken from patent US4183931A, “2-Ketoalkyl-4(3H)-quinazolinones” (Research Corporation, priority 1977, dated 1980).
